The text below walks through data of patent US20260232678A1, “Nasal Spray for Phosphodiesterase Inhibitors” (Cyrano Therapeutics, Inc., priority 2022, published 2026).

SMILES strings stand for the structures.

The subject of data set [1] is phantosmia and phantogeusia. Put plainly: Treatment of phantosmia in a subject. The note with it: thioridazine composition in nasal spray device, 3× daily in each naris. In kind it is in vivo.
Source text: A subject is admitted to a clinic for phantosmia and phantogeusia. The subject is prescribed a thioridazine composition in a nasal spray device described herein. The subject administers the nasal spray in an effective dose 3× daily in each naris. The nasal spray is characterized by a spray containing a D50 of about 15 μm to about 24 μm, a D90 of from about 30 μm to about 50 μm and where less than about 3% of the droplets in the plume of a spray have a size of less than about 10 μm.
Data set [2] deals with chemosensory dysfunction associated with Parkinson's disease. Put plainly: Treatment of Parkinson's disease chemosensory dysfunction. In kind it is in vivo, human. The note with it: about 0.4 ml per day of 3.1 mg/ml theophylline, nasal spray twice daily in each naris, 7 days. As for the experimental part: An adult human subject was treated for chemosensory dysfunction associated with Parkinson's disease. […] The subject was administered about 0.4 ml per day of a liquid composition comprising theophylline at a concentration of 3.1 mg/ml in a nasal spray device described herein. The subject administered the nasal spray twice daily in each naris.

For data set [3] the following is noted: cited from earlier work.

Regarding `CSc1ccc2c(c1)N(CCC1CCCCN1C)c1ccccc1S2` (stereo not shown) [thioridazine], the “symptoms of the phantosmia and phantogeusia” value in data set [1] was “reduced symptoms”.

`Cn1c(=O)c2[nH]cnc2n(C)c1=O` [Theophylline, theophylline]: the “ability to taste and smell” value in data set [2] is “regained their ability to taste and smell”. For the same compound, in data set [3] (ethanol), the solubility in ethanol was 14 to 15 mg/mL. In data set [3] (water), the solubility in water was 7 to 8 mg/mL.
